This passage reports IC50 results from patent US11866430B2, “Naphthyridinone compounds useful as T cell activators” (priority 2018, dated 2024).

The target of test [1] is human DGKζ (Homo sapiens (Human), UniProt Q13574). In words: DGKζ assay (detergent/lipid micelle substrate). The format is biochemical. As for the experimental part: (§1) The DGKα and DGKζ reactions were performed using either extruded liposome (DGKα and DGKζ LIPGLO assays) or detergent/lipid micelle substrate (DGKα and DGKζ assays). The reactions were carried out in 50 mM MOPS pH 7.5, 100 mM NaCl, 10 mM MgCl2, 1 μM CaCl2, and 1 mM DTT (assay buffer). The reactions using a detergent/lipid micelle substrate also contained 50 mM octyl B-D-glucopyranoside. […] The lipid substrate concentrations were […], 0.25 mM DAG, and 2.75 mM PC for the extruded liposome reactions.
human DGKζ, sequence (Q13574 other isoform, or with tags, fused parts or gaps): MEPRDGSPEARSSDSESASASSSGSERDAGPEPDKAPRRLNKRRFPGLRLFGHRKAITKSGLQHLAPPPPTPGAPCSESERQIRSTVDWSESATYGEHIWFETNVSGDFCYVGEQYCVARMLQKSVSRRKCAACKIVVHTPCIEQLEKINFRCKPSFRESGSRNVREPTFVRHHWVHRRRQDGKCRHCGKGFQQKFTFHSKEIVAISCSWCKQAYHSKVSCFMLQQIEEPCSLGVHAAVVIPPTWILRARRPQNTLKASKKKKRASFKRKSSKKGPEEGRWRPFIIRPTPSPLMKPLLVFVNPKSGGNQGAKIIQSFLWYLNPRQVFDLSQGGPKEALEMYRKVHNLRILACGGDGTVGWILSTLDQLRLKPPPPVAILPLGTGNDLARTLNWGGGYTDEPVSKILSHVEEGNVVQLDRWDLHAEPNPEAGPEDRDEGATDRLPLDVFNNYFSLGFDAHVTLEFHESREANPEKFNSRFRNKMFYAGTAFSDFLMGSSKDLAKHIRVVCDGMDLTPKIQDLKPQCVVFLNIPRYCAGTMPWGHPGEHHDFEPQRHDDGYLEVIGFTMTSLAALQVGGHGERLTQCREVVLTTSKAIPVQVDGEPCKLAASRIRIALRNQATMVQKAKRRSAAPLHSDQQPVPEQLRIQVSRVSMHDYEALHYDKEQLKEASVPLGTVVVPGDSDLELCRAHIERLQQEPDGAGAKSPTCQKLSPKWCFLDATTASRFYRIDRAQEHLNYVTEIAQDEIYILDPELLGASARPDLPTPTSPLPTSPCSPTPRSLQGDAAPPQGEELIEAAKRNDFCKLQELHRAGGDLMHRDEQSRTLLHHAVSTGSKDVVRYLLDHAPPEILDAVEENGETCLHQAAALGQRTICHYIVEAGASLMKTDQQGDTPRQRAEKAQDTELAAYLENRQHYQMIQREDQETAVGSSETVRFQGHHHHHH
(§2) The compound inhibition studies were carried out as follows: 50 nL droplets of each test compound (top concentration 10 mM with 11 point, 3-fold dilution series for each compound) solubilized in DMSO were transferred to wells of a white 1536 well plate (Corning 3725). A 5 mL enzyme/substrate solution at 2× final reaction concentration was prepared by combining 2.5 mL 4× enzyme solution (20 nM DGKα or DGKζ (prepared as described below) in assay buffer) and 2.5 mL of either 4× liposome or 4× detergent/lipid micelle solution (compositions described below) and incubated at room temperature for 10 minutes. Next, 1 μL 2× enzyme/substrate solution was added to wells containing the test compound and reactions were initiated with the addition of 1 μL 300 uM ATP. The reactions were allowed to proceed for 1 hr, after which 2 μL Glo Reagent (Promega V9101) was added and incubated for 40 minutes. Next, 4 μL Kinase Detection Reagent was added and incubated for 30 minutes. Luminescence was recorded using an EnVision microplate reader. […] The compounds were evaluated at 11 concentrations to determine IC50.
(§3) The detergent/lipid micelle was prepared by combining 15 g phosphatidylserine (Avanti 840035P) and 1 g diacylglycerol (800811O) and dissolving into 150 mL chloroform in a 2 L round bottom flask. Chloroform was removed under high vacuum by rotary evaporation. The resulting colorless, tacky oil was resuspended in 400 mL 50 mM MOPS pH 7.5, 100 mM NaCl, 20 mM NaF, 10 mM MgCl2, 1 μM CaCl2), 1 mM DTT, and 200 mM octyl glucoside by vigorous mixing. The lipid/detergent solution was split into 5 mL aliquots and stored at −80° C.
(§4) Human DGK-alpha-TVMV-His-pFBgate and human DCK-zeta-transcript variant-2-TVMV-His-pFBgate baculovirus samples were generated using the Bac-to-Bac baculovirus expression system (Invitrogen) according to the manufacturer's protocol. The DNA used for expression of DGK-alpha and DGK-zeta have SEQ ID NOs: 1 and 3, respectively. Baculovirus amplification was achieved using infected Sf9 cells at 1:1500 virus/cell ratios, and grown for 65 hours at 27° C. post-transfection.
(§5) The expression scale up for each protein was carried out in the Cellbag 50 L WAVE-Bioreactor System 20/50 from GE Healthcare Bioscience. 12 L of 2×10^6 cells/mL Sf9 cells (Expression System, Davis, Calif.) grown in ESF921 insect medium (Expression System) were infected with virus stock at 1:200 virus/cell ratios, and grown for 66-68 hours at 27° C. post-infection. The infected cell culture was harvested by centrifugation at 2000 rpm for 20 min 4° C. in a SORVALL® RC12BP centrifuge. The cell pellets were stored at −70° C. until purification.
(§6) Full length human DGKα and DGKζ, each expressed containing a TVMV-cleavable C-terminal Hexa-His tag sequence (SEQ ID NOs: 2 and 4, respectively) and produced as described above, were purified from Sf) baculovirus-infected insect cell paste. The cells were lysed using nitrogen cavitation method with a nitrogen bomb (Parr Instruments), and the lysates were clarified by centrifugation. […] The three steps column chromatography included nickel affinity resin capture (i.e. HisTrap FF crude, GE Healthcare), followed by size exclusion chromatography (i.e. HiLoad 26/600 Superdex 200 prep grade, GE Healthcare for DGK-alpha, and HiPrep 26/600 Sephacryl S 300_HR, GE Healthcare for DGK-zeta).

In test [2] the test system is pre-activated CD4 T cells and Raji cells. Kind of test: Raji CD4 T Cell IL2 Assay. The format is cell-based.
Test [3] has as its target human DGKα (Homo sapiens (Human), UniProt P23743). Kind of test: biochemical. The following applies: detergent/lipid micelle substrate; read-out: DGKα IC50. As for the experimental part: as §1, §2, §3, §4, §5, §6
Where [4] appears, read: detergent/lipid micelle substrate, read-out: DGKζ IC50.
[5] abbreviates: DGKζ IC50, detergent/lipid micelle substrate.

Where two headings read alike, the source gives them in different places. Where only a bound is given, the exact number is not on record here.

human DGKα, sequence (P23743 other isoform, or with tags, fused parts or gaps): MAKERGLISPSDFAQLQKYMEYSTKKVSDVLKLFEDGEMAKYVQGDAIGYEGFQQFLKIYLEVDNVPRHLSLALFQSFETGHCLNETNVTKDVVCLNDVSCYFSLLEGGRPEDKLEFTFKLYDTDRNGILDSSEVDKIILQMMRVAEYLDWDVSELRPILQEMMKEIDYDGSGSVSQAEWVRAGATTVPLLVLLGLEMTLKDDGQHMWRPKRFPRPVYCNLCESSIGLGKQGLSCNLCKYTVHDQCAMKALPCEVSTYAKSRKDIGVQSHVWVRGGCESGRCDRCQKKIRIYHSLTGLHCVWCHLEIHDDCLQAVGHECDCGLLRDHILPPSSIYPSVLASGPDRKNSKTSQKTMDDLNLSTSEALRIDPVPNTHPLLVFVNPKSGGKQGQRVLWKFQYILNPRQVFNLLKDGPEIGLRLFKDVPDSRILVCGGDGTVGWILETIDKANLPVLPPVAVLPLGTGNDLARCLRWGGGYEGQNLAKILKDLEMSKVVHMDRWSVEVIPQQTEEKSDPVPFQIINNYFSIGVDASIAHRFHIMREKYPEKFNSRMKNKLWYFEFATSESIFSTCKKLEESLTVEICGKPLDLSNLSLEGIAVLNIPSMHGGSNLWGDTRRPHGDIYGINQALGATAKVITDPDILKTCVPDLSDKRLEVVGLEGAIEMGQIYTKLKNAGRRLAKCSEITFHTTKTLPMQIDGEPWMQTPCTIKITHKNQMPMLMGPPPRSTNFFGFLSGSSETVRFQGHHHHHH

A word on the IC50: it is the concentration at which inhibition is half-maximal. Take `COc1cc(F)ccc1C(c1ccc(F)cc1)N1CCN(c2c([N+](=O)[O-])c(=O)n(C)c3ccc(Br)nc23)CC1` (single isomer, unassigned) [Example 57, 6-bromo-4-(4-((4-fluoro-2-methoxyphenyl)(4-fluorophenyl)methyl)piperazin-1-yl)-1-methyl-3-nitro-1,5-naphthyridin-2(1H)-one]: the IC50 amounted to 110000 nM in test [1] (setting [4]), 140 nM in test [2] and 1600 nM in test [3].

With `COc1cc(F)ccc1C(c1ccc(F)cc1)N1CCN(c2c([N+](=O)[O-])c(=O)n(C)c3ccc(Br)nc23)CC1` (single isomer, unassigned) [Example 58, 6-bromo-4-(4-((4-fluoro-2-methoxyphenyl)(4-fluorophenyl)methyl)piperazin-1-yl)-1-methyl-3-nitro-1,5-naphthyridin-2(1H)-one], the results for the IC50 in test [1] (setting [4]), in test [2] and in test [3] were 19000 nM, 28 nM and 250 nM, respectively.

Regarding `COc1cccc(C)c1C(c1ccc(F)cc1)N1CCN(c2c([N+](=O)[O-])c(=O)n(C)c3ccc(Br)nc23)CC1` (single isomer, unassigned) [Example 60, 6-bromo-4-(4-((4-fluorophenyl)(2-methoxy-6-methylphenyl)methyl)piperazin-1-yl)-1-methyl-3-nitro-1,5-naphthyridin-2(1H)-one], the IC50 in test [1] (setting [4]) was more than 240000 nM; in test [2] it was 1600 nM; in test [3] it was 32000 nM.

As for `COc1cccc(C)c1C(c1ccc(F)cc1)N1CCN(c2c([N+](=O)[O-])c(=O)n(C)c3ccc(Br)nc23)CC1` (single isomer, unassigned) [Example 61, 6-bromo-4-(4-((4-fluorophenyl)(2-methoxy-6-methylphenyl)methyl)piperazin-1-yl)-1-methyl-3-nitro-1,5-naphthyridin-2(1H)-one], the IC50 in test [1] (setting [4]) was 2200 nM; in test [2], 56 nM; in test [3], 4400 nM.

As to `Cn1c(=O)c([N+](=O)[O-])c(N2CCN(C(c3ccc(F)cc3)c3cccc(F)c3O)CC2)c2nc(Br)ccc21` (single isomer, unassigned) [Example 75, 6-bromo-4-(4-((3-fluoro-2-hydroxyphenyl)(4-fluorophenyl)methyl)piperazin-1-yl)-1-methyl-3-nitro-1,5-naphthyridin-2(1H)-one], the results for the IC50 in test [1] (setting [5]), in test [2] and in test [3] were 130000 nM, 140 nM and 2600 nM, respectively.

On to `Cn1c(=O)c([N+](=O)[O-])c(N2CCN(C(c3ccc(F)cc3)c3cccc(F)c3O)CC2)c2nc(Br)ccc21` (single isomer, unassigned) [Example 76, 6-bromo-4-(4-((3-fluoro-2-hydroxyphenyl)(4-fluorophenyl)methyl)piperazin-1-yl)-1-methyl-3-nitro-1,5-naphthyridin-2(1H)-one], for which the IC50 stood at 2500 nM in test [1] (setting [5]), 67 nM in test [2] and 5500 nM in test [3].

Consider `Cn1c(=O)c([N+](=O)[O-])c(N2CCN(C(c3ccccc3)c3ccccc3O)CC2)c2nc(Br)ccc21` (single isomer, unassigned) [Example 79, 6-bromo-4-(4-((2-hydroxyphenyl)(phenyl)methyl)piperazin-1-yl)-1-methyl-3-nitro-1,5-naphthyridin-2(1H)-one], for which the IC50 is more than 81000 nM in test [1] (setting [4]), 67 nM in test [2] and 81000 nM in test [3].

For the molecule `Cc1cccc(C(c2ccc(F)cc2)N2CCN(c3c([N+](=O)[O-])c(=O)n(C)c4ccc(Br)nc34)CC2)c1O` (single isomer, unassigned) [Example 85, 6-bromo-4-(4-((4-fluorophenyl)(2-hydroxy-3-methylphenyl)methyl)piperazin-1-yl)-1-methyl-3-nitro-1,5-naphthyridin-2(1H)-one], the 50% inhibitory concentration (IC50) in test [1] (setting [4]) was determined as 770 nM; in test [2] (Homo sapiens, Raji), 100 nM; in test [3] it was 7600 nM.

In the case of `Cc1cccc(OCc2cncc(C#N)c2)c1C(c1ccc(F)cc1)N1CCN(c2c([N+](=O)[O-])c(=O)n(C)c3ccc(Br)nc23)CC1` (single isomer, unassigned) [Example 89, 5-((2-((4-(6-bromo-1-methyl-3-nitro-2-oxo-1,2-dihydro-1,5-naphthyridin-4-yl)piperazin-1-yl)(4-fluorophenyl)methyl)-3-methylphenoxy)methyl)nicotinonitrile], the figures for the IC50 in test [1] (setting [4]), in test [2] and in test [3] were more than 240000 nM, 2800 nM and 41000 nM, respectively.

As to `C=CCOc1cccc(C)c1C(c1ccc(F)cc1)N1CCN(c2c([N+](=O)[O-])c(=O)n(C)c3ccc(Br)nc23)CC1` (single isomer, unassigned) [Example 95, 4-(4-((2-(allyloxy)-6-methylphenyl)(4-fluorophenyl)methyl)piperazin-1-yl)-6-bromo-1-methyl-3-nitro-1,5-naphthyridin-2(1-H)-one], the IC50 in test [1] (setting [4]) was more than 240000 nM; in test [2], 1100 nM; in test [3], more than 240000 nM.

For the molecule `C=CCOc1cccc(C)c1C(c1ccc(F)cc1)N1CCN(c2c([N+](=O)[O-])c(=O)n(C)c3ccc(Br)nc23)CC1` (single isomer, unassigned) [Example 96, 4-(4-((2-(allyloxy)-6-methylphenyl)(4-fluorophenyl)methyl)piperazin-1-yl)-6-bromo-1-methyl-3-nitro-1,5-naphthyridin-2(1-H)-one], the IC50 turned out to be 53000 nM in test [1] (setting [4]), 360 nM in test [2] and 87000 nM in test [3].

For the molecule `Cn1c(=O)c([N+](=O)[O-])c(N2CCN(C(c3ccc(F)cc3)c3ccccc3O)CC2)c2nc(C#N)ccc21` (single isomer, unassigned) [Example 98, 8-(4-((4-fluorophenyl)(2-hydroxyphenyl)methyl)piperazin-1-yl)-5-methyl-7-nitro-6-oxo-5,6-dihydro-1,5-naphthyridine-2-carbonitrile], the values for the 50% inhibitory concentration (IC50) in test [1] (setting [4]), in test [2] and in test [3] were 4400 nM, 130 nM and 6700 nM, respectively.

On to `C#CCOc1ccccc1C(c1ccc(F)cc1)N1CCN(c2c([N+](=O)[O-])c(=O)n(C)c3ccc(C#N)nc23)CC1` (single isomer, unassigned) [Example 101, 8-(4-((4-fluorophenyl)(2-(prop-2-yn-1-yloxy)phenyl)methyl)piperazin-1-yl)-5-methyl-7-nitro-6-oxo-5,6-dihydro-1,5-naphthyridine-2-carbonitrile], for which the IC50 turned out to be 27000 nM in test [1] (setting [4]); 190 nM in test [2] (Homo sapiens, Raji); 15000 nM in test [3].

`C#CCn1c(=O)c(C#N)c(N2CCN(C(c3ccc(F)cc3)c3ccccc3O)CC2)c2nc(Br)ccc21` (single isomer, unassigned) [Example 106, 6-bromo-4-(4-((4-fluorophenyl)(2-hydroxyphenyl)methyl)piperazin-1-yl)-2-oxo-1-(prop-2-yn-1-yl)-1,2-dihydro-1,5-naphthyridine-3-carbonitrile]: the IC50 was determined as 2000 nM in test [1] (setting [4]); 2.4 nM in test [2] (Homo sapiens, Raji); 960 nM in test [3].

Consider `COCCn1c(=O)c(C#N)c(N2CCN(C(c3ccc(F)cc3)c3ccc(F)cc3OC)CC2)c2nc(Br)ccc21` (single isomer, unassigned) [Example 115, 6-bromo-4-(4-((4-fluoro-2-methoxyphenyl)(4-fluorophenyl)methyl)piperazin-1-yl)-1-(2-methoxyethyl)-2-oxo-1,2-dihydro-1,5-naphthyridine-3-carbonitrile], for which the IC50 was more than 240000 nM in test [1] (setting [4]), 3800 nM in test [2] and 220000 nM in test [3].
